The text below walks through data of article PMC10649961, “Novel Mitochondria-Targeted Amphiphilic Aminophosphonium Salts and Lipids Nanoparticles: Synthesis, Antitumor Activity and Toxicity” (Nanomaterials, 2023).

Test [1] deals with Candida albicans ATCC 10231. Put plainly: Antimicrobial activity, serial microdilutions, Ca. The class given is cell-based. The arrangement: key to Minimum Inhibitory Concentration (MIC) / Minimum bactericidal and fungicidal concentrations (MBC, MFC): – means non-active. The method, then: (§1) The antimicrobial activity of test compounds was determined by serial microdilutions in 96-well plates using Mueller-Hinton broth for bacterial culture and Sabouraud broth for yeast culture. Cultures of Gram-positive bacteria were used in the experiment: Staphylococcus aureus ATCC 6538 P FDA 209P, Bacillus cereus ATCC 10702 NCTC 8035, Enterococcus faecalis ATCC 29212; Gram-negative bacteria: Escherichia coli ATCC 25922, Pseudomonas aeruginosa ATCC 9027; and yeast: Candida albicans ATCC 10231, purchased from the State Collection of Pathogenic Microorganisms and Cell Cultures “SCPM-Obolensk” (Obolensk, Russia). Methicillin-resistant strains of S. aureus (MRSA) were isolated from patients with chronic tonsillitis (MRSA-1) and sinusitis (MRSA-2) in the bacteriological laboratory of the Republican Clinical Hospital (Kazan, Russia). The experiments were carried out in triplicate.
Background: Dilution methods test growth across graded concentrations, often in twofold steps.

The subject of test [2] is Escherichia coli ATCC 25922. Put plainly: Antimicrobial activity, serial microdilutions, Ec. The test is classed as cell-based. On the set-up: key to Minimum Inhibitory Concentration (MIC) / Minimum bactericidal and fungicidal concentrations (MBC, MFC): – means non-active. The procedure:
as §1

The subject of a further test is MRSA-1. Nature of the test: Antimicrobial activity, serial microdilutions, MRSA-1. The class given is cell-based, S. aureus. The arrangement: key to Minimum Inhibitory Concentration (MIC) / Minimum bactericidal and fungicidal concentrations (MBC, MFC): – means non-active. The method, then:
as §1

Another test deals with MRSA-2. Nature of the test: Antimicrobial activity, serial microdilutions, MRSA-2. The test is classed as cell-based, S. aureus. The note with it: Staphylococcus aureus; for MIC: read-out: Minimum Inhibitory Concentration (MIC); for MBC: read-out: Minimum bactericidal and fungicidal concentrations (MBC, MFC). The method, then: as §1
Test [3] has as its system Staphylococcus aureus ATCC 6538 P FDA 209P. Put plainly: Antimicrobial activity, serial microdilutions, Sa. The test is classed as cell-based. Conditions: Staphylococcus aureus; for MIC: read-out: Minimum Inhibitory Concentration (MIC); for MBC: read-out: Minimum bactericidal and fungicidal concentrations (MBC, MFC). The procedure:
as §1

For test [4], the system named is Bacillus cereus ATCC 10702 NCTC 8035. Put plainly: Antimicrobial activity, serial microdilutions, Bc. The note with it: for MIC: read-out: Minimum Inhibitory Concentration (MIC). The arrangement: key to Minimum bactericidal and fungicidal concentrations (MBC, MFC): – means non-active. The test is classed as cell-based. The method, then:
as §1

The test system of test [5] is Enterococcus faecalis ATCC 29212. Nature of the test: Antimicrobial activity, serial microdilutions, Ef. The class given is cell-based. The arrangement: key to Minimum Inhibitory Concentration (MIC) / Minimum bactericidal and fungicidal concentrations (MBC, MFC): – means non-active. The method, then: as §1
Test [6] concerns Pseudomonas aeruginosa ATCC 9027. Nature of the test: Antimicrobial activity, serial microdilutions, Pa. The class given is cell-based. The arrangement: key to Minimum Inhibitory Concentration (MIC) / Minimum bactericidal and fungicidal concentrations (MBC, MFC): – means non-active. The method, then:
as §1

The subject of test [7] is PC3. The note with it: calculated relative to the cell line WI38 (a).
In test [8] the test system is SK-OV-3. Put plainly: cells. Conditions: Homo sapiens, SK-OV-3, 48 h, read-out: Cytotoxic Effects (IC50).
The subject of test [9] is Hep G2. Put plainly: cells. Conditions: Homo sapiens, HepG2, 48 h, read-out: Cytotoxic Effects (IC50).
Test [10] has as its system M-HeLa. Nature of the test: cells. Conditions: Homo sapiens, 48 h, read-out: Cytotoxic Effects (IC50).
The subject of another test is A549. Nature of the test: cells. Conditions: Homo sapiens, A549, 48 h, read-out: Cytotoxic Effects (IC50).
The test system of test [11] is MCF-7. Put plainly: cells. The note with it: Homo sapiens, MCF7, 48 h, read-out: Cytotoxic Effects (IC50).
Test [12] has as its system DU-145. Conditions: reference normal cell line not marked at the place (ns cells).
In the next test the test system is T98G. Nature of the test: cells. Conditions: Homo sapiens, 48 h, read-out: Cytotoxic Effects (IC50).
The subject of test [13] is HuTu 80. Nature of the test: cells. The note with it: Homo sapiens, HuTu80, 48 h, read-out: Cytotoxic Effects (IC50).
The test system of test [14] is PC3. Put plainly: cells. The note with it: Homo sapiens, PC-3, 48 h, read-out: Cytotoxic Effects (IC50), PC3, MTT assay, 48 h. In general terms: Formazan colour is commonly taken as a measure of viable cells.
For test [15], the system named is PANC-1. The note with it: calculated relative to the cell line WI38 (a).
In test [16] the test system is SK-OV-3. Conditions: calculated relative to the cell line WI38 (a).
Test [17] concerns Hep G2. The note with it: reference normal cell line not marked at the place (ns cells).
In test [18] the test system is MCF-7. The note with it: calculated relative to the cell line WI38 (a).
The test system of test [19] is DU-145. Nature of the test: cells. The note with it: Homo sapiens, DU-145, 48 h.
Test [20] relates to M-HeLa. Conditions: calculated relative to the cell line WI38 (a).
Test [21] relates to PANC-1. Nature of the test: cells. Conditions: Homo sapiens, PANC-1, 48 h, read-out: Cytotoxic Effects (IC50).
Test [22] relates to HuTu 80. The note with it: calculated relative to the cell line WI38 (a).

Converted amounts (≈) assume the structure as drawn. Where two headings read alike, the source gives them in different places.

With `CC(=O)N1CCN(c2ccc(OCC3COC(Cn4ccnc4)(c4ccc(Cl)cc4Cl)O3)cc2)CC1` (stereo not shown) [Ketoconazole, reference compound], the MIC in [1] (Candida albicans, ATCC10231, read-out: Minimum Inhibitory Concentration (MIC)) came out at 7.3 ± 0.5 µM (≈ 3.88 µg/mL). For the same compound, the MBC in test [1] (Candida albicans, ATCC10231, read-out: Minimum bactericidal and fungicidal concentrations (MBC, MFC)) was 7.3 ± 0.5 µM (≈ 3.88 µg/mL). Also, the “Minimum Inhibitory Concentration (MIC)” value in [2] is recorded as “–”.

As to `CCn1cc(C(=O)O)c(=O)c2cc(F)c(N3CCNCC3)cc21` [Norfloxacin, reference compound], the “Minimum Inhibitory Concentration (MIC)” value (in the test with MRSA-1; in test [1] (Ca)) was “–” each time. The “Minimum bactericidal and fungicidal concentrations (MBC, MFC)” value in the test on MRSA-1 is reported as “–”. The MIC is 7.5 ± 0.5 µM (≈ 2.4 µg/mL) with MRSA-2; 7.5 ± 0.5 µM (≈ 2.4 µg/mL) in test [3]; 4.7 ± 0.02 µM (≈ 1.5 µg/mL) in [2] (Escherichia coli, ATCC25922, read-out: Minimum Inhibitory Concentration (MIC)); 24.4 ± 2.1 µM (≈ 7.79 µg/mL) in [4] (Bacillus cereus, Bc); 24.4 ± 2.2 µM (≈ 7.79 µg/mL) in test [5] (Enterococcus faecalis, ATCC29212, read-out: Minimum Inhibitory Concentration (MIC)); 12.1 ± 1.1 µM (≈ 3.86 µg/mL) in test [6] (Pseudomonas aeruginosa, ATCC9027, read-out: Minimum Inhibitory Concentration (MIC)). Further, the MBC in the test with MRSA-2 is 7.5 ± 0.6 µM (≈ 2.4 µg/mL); in test [3], 7.5 ± 0.6 µM (≈ 2.4 µg/mL); in test [2] (Escherichia coli, ATCC25922, read-out: Minimum bactericidal and fungicidal concentrations (MBC, MFC)), 24.4 ± 2.3 µM (≈ 7.79 µg/mL); in test [4] (Bacillus cereus, read-out: Minimum bactericidal and fungicidal concentrations (MBC, MFC)) it was 24.4 ± 2.1 µM (≈ 7.79 µg/mL); in test [5] (Enterococcus faecalis, ATCC29212, read-out: Minimum bactericidal and fungicidal concentrations (MBC, MFC)) it was 24.4 ± 1.9 µM (≈ 7.79 µg/mL); in [6] (Pseudomonas aeruginosa, ATCC9027, read-out: Minimum bactericidal and fungicidal concentrations (MBC, MFC)) it was 49 ± 4.2 µM (≈ 15.6 µg/mL).

Take `CCN(CC)[P+](CCCCCC[P+](N(CC)CC)(N(CC)CC)N(CC)CC)(N(CC)CC)N(CC)CC` [compound 9, 1,6-Hexanediyl-bis(hexaethyltriaminophosphonium)dibromide]: the “selectivity index (SI)” value in the test on PC3 [7] was 1.3; with DU-145 [12], “ns (ns—no selectivity)”; in the test on PANC-1 [15] it was 1.2; in the test on SK-OV-3 [16], 1.3; with Hep G2 [17], “ns (ns—no selectivity)”; in the test on MCF-7 [18] it was 1.2. Besides, the entries for the “selectivity index (SI)” value in the test on M-HeLa [20] and with HuTu 80 [22] were 1.5 and 3.5, respectively. In addition, the IC50 – broadly, the midpoint of a concentration-inhibition curve – in the test with SK-OV-3 [8] is 36.4 ± 4.7 µM; with Hep G2 [9], 53.9 ± 6.9 µM; with M-HeLa [10], 31.1 ± 3.9 µM; in the test with A549, > 100 µM; in the test on MCF-7 [11] it was 37.8 ± 4.8 µM; in the test with T98G, > 100 µM. Further, the IC50 in the test on HuTu 80 [13] worked out at 13.1 ± 1.7 µM; in the test on PC3 [14] it was 34.9 ± 4.5 µM; with DU-145 [19] (read-out: Cytotoxic Effects (IC50), DU-145, MTT assay, 48 h) it was 50.5 ± 6.4 µM; in the test on PANC-1 [21] it was 39.6 ± 5.1 µM. Further, the MIC is 137 ± 19 µM in the test with MRSA-1 (Staphylococcus aureus, read-out: Minimum Inhibitory Concentration (MIC)); 34.3 ± 5.3 µM in the test on MRSA-2; 34.3 ± 5.4 µM in test [3]; 274 ± 48 µM in test [4] (Bacillus cereus, Bc). In addition, the MBC is 137 ± 18 µM in the test with MRSA-1 (Staphylococcus aureus, read-out: Minimum bactericidal and fungicidal concentrations (MBC, MFC)); 137 ± 21 µM in the test with MRSA-2; 137 ± 21 µM in [3]. For the same compound, the “Minimum Inhibitory Concentration (MIC)” value in test [1] (Ca), in test [2], in [5] and in test [6] was “–” throughout. The “Minimum bactericidal and fungicidal concentrations (MBC, MFC)” value in test [1] (Ca), in test [2], in test [4] (Bc), in test [5] and in test [6] was “–” each time.

In the case of `COc1cccc2c1C(=O)c1c(O)c3c(c(O)c1C2=O)C[C@@](O)(C(=O)CO)C[C@@H]3O[C@H]1C[C@H](N)[C@H](O)[C@H](C)O1` [doxorubicin, reference compound], the IC50 stood at 6.7 ± 0.5 µM in the test with SK-OV-3 [8]; 0.2 ± 0.01 µM in the test with Hep G2 [9]; 2.1 ± 0.1 µM in the test on M-HeLa [10]; 0.7 ± 0.06 µM in the test with A549; 0.4 ± 0.03 µM with MCF-7 [11]; 1 ± 0.09 µM in the test on T98G. In addition, the IC50 in the test on HuTu 80 [13] was 0.2 ± 0.01 µM; in the test on DU-145 [19] (read-out: Cytotoxic Effects (IC50)), 0.3 ± 0.02 µM; in the test on PANC-1 [21] it was 2.2 ± 0.1 µM.
